In patent US20260374773A1, “MULTI-CYCLIC IRAK AND FLT3 INHIBITING COMPOUNDS AND USES THEREOF” (CHILDREN'S HOSPITAL MEDICAL CENTER, priority 2022, published 2026):

Experiments:
Conditions in all cases: no ATP
FLT3 Autoinh. = target: T1, FLT3 Autoinh. (Homo sapiens, UniProt P36888); test: DiscoverX KINOMEscan active site-directed competition binding, FLT3 Autoinh.
T1 sequence (P36888 27-993): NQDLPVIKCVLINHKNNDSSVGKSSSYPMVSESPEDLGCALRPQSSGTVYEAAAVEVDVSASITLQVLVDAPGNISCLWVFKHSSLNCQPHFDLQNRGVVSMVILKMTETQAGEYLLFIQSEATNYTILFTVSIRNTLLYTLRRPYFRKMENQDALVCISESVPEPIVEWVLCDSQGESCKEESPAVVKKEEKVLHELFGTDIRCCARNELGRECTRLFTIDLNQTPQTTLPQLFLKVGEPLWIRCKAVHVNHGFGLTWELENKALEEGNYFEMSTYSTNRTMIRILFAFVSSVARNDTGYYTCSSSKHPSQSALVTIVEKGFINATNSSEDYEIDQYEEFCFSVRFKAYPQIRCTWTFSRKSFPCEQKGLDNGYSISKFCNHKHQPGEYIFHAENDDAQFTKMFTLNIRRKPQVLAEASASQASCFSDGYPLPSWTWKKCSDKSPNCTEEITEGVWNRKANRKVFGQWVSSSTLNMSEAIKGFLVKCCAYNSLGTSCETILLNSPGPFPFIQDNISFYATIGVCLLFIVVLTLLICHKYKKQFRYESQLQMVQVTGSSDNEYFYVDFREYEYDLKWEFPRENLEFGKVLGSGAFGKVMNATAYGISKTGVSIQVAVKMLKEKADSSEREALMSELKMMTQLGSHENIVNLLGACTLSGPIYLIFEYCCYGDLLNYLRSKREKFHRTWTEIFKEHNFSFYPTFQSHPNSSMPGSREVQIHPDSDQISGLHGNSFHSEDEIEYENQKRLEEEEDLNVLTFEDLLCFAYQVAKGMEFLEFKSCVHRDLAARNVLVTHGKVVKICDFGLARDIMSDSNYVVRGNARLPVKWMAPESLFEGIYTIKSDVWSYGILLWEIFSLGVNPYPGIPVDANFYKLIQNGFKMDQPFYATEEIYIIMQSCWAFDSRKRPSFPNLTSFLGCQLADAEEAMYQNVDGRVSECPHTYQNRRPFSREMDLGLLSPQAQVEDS
Description: (§1) Kinase binding data were obtained for various exemplary compounds prepared according to Examples 1-8 using the DiscoverX KINOMEscan® active site-directed competition binding site-directed assay protocol described below. […] As a result, the data report thermodynamic interaction affinities (Kd values), rather than IC50 values that are dependent on ATP concentrations. The assay uses a DNA-tagged version of the protein kinase, and an immobilized ligand bound to a solid support. Compounds that directly or indirectly prevent kinase binding to the immobilized ligand reduce the amount of kinase captured on the solid support, which is detected using an ultra-sensitive qPCR method. Affinity constants reported from the assay have been reported to be independent of the immobilized ligand used that is coupled to the solid support (See supplemental information in Fabian, M. A. et. al., (2005) Nat. Biotechnol. 23, 329-336; Wodicka, L. M. et. al., (2010) Chem. Biol. 17, 1241-1249.)
(§2) Kinase-tagged T7 phage strains were prepared in an E. coli host derived from the BL21 strain. E. coli were grown to log-phase and infected with T7 phage and incubated with shaking at 32 °C until lysis. The lysates were centrifuged and filtered to remove cell debris. The remaining kinases were produced in HEK-293 cells and subsequently tagged with DNA for qPCR detection. Streptavidin-coated magnetic beads were treated with biotinylated small molecule ligands for 30 minutes at room temperature to generate affinity resins for kinase assays. The liganded beads were blocked with excess biotin and washed with blocking buffer (SeaBlock (Pierce), 1% BSA, 0.05% Tween 20, 1 mM DTT) to remove unbound ligand and to reduce non-specific binding. […] Test compounds were prepared as 111x stocks in 100% DMSO. Kds were determined using an 11-point 3-fold compound dilution series with three DMSO control points. All compounds for Kd measurements are distributed by acoustic transfer (non-contact dispensing) in 100% DMSO. The compounds were then diluted directly into the assays such that the final concentration of DMSO was 0.9%. All reactions were performed in polypropylene 384-well plates. Each was a final volume of 0.02 mL. The assay plates were incubated at room temperature with shaking for 1 hour and the affinity beads were washed with wash buffer (1×PBS, 0.05% Tween 20). The beads were then re-suspended in elution buffer (1×PBS, 0.05% Tween 20, 0.5 μM nonbiotinylated affinity ligand) and incubated at room temperature with shaking for 30 minutes. The kinase concentration in the eluates was measured by qPCR. Binding constants (Kds) were calculated with a standard dose-response curve using the Hill equation. The Hill Slope was set to −1. Curves were fitted using a non-linear least square fit with the Levenberg-Marquardt algorithm.
as §1, with “9-12” for “1-8”
(§3) Kinase-tagged T7 phage strains were prepared in an E. coli host derived from the BL21 strain. […]

FLT3 ITD = target: T2, FLT3 ITD (Homo sapiens, UniProt P36888, ITD); test: DiscoverX KINOMEscan active site-directed competition binding, FLT3 ITD
T2 construct: T7 phage/E. coli or HEK-293 expression
T2 sequence (P36888 27-993): T1 sequence (P36888 27-993)
Description: as §1, §2
as §1, with “9-12” for “1-8”
as §3

FLT3 = target: T3, FLT3 (Homo sapiens, UniProt P36888); test: DiscoverX KINOMEscan active site-directed competition binding, FLT3
T3 sequence (P36888 27-993): T1 sequence (P36888 27-993)
Description: as §1, §2
as §1, with “9-12” for “1-8”
as §3

Kd (FLT3 Autoinh.; Table 19) [nM]	Kd (FLT3 ITD; Table 18) [nM]	Kd (FLT3; Table 18) [nM]	Kd (FLT3 Autoinh.; Table 13) [nM]	Kd (FLT3 ITD; Table 12) [nM]	Kd (FLT3; Table 12) [nM]	SMILES
			0.68	0.41	< 0.17	COc1cn2ncc(-c3nc(N[C@H]4CNCC[C@@H]4F)c(C#N)cc3F)c2nc1C1CC1 [Compound 7, 6-(5-cyclopropyl-6-methoxypyrazolo[1,5-a]pyrimidin-3-yl)-5-fluoro-2-(((3S,4S)-4-fluoropiperidin-3-yl)amino)nicotinonitrile]
			3.7	0.21	0.61	COc1cn2ncc(-c3nc(N[C@H]4CNCC[C@@H]4F)c(F)cc3F)c2nc1C(C)(C)O [Compound 13, 2-(3-(3,5-difluoro-6-(((3S,4S)-4-fluoropiperidin-3-yl)amino)pyridin-2-yl)-6-methoxypyrazolo[1,5-a]pyrimidin-5-yl)propan-2-ol]
1.4	0.25	< 0.17				COc1cn2ncc(-c3nc(N[C@H]4CNCC[C@@H]4F)ncc3F)c2nc1C1CC1 [Compound 15a, 4-(5-cyclopropyl-6-methoxypyrazolo[1,5-a]pyrimidin-3-yl)-5-fluoro-N-((3S,4S)-4-fluoropiperidin-3-yl)pyrimidin-2-amine]

The next lines start with the compound.

SMILES	Kd (FLT3 Autoinh.; Table 19) [nM]	Kd (FLT3 ITD; Table 18) [nM]	Kd (FLT3; Table 18) [nM]	Kd (FLT3 Autoinh.; Table 13) [nM]	Kd (FLT3 ITD; Table 12) [nM]	Kd (FLT3; Table 12) [nM]
COc1cn2ncc(-c3nc(N[C@H]4CNCC[C@@H]4F)ncc3F)c2nc1C(C)(C)O [Compound 6a, 2-(3-(5-fluoro-2-(((3S,4S)-4-fluoropiperidin-3-yl)amino)pyrimidin-4-yl)-6-methoxypyrazolo[1,5-a]pyrimidin-5-yl)propan-2-ol]	4.8	0.23	0.47			
COc1cn2ncc(-c3ccnc(N[C@H]4CNCC[C@@H]4F)n3)c2nc1C1CC1 [Compound 7a, 4-(5-cyclopropyl-6-methoxypyrazolo[1,5-a]pyrimidin-3-yl)-N-((3S,4S)-4-fluoropiperidin-3-yl)pyrimidin-2-amine]	12	0.53	< 0.17			
COc1cn2ncc(-c3nc(N[C@H]4CNCC[C@@H]4F)c(C#N)cc3F)c2nc1C(C)(C)O [Compound 10, 5-fluoro-2-(((3S,4S)-4-fluoropiperidin-3-yl)amino)-6-(5-(2-hydroxypropan-2-yl)-6-methoxypyrazolo[1,5-a]pyrimidin-3-yl)nicotinonitrile]				5.4	0.28	0.28
COc1cn2ncc(-c3cncc(N[C@H]4CNCC[C@@H]4F)n3)c2nc1C1CC1 [Compound 12a, 6-(5-cyclopropyl-6-methoxypyrazolo[1,5-a]pyrimidin-3-yl)-N-((3S,4S)-4-fluoropiperidin-3-yl)pyrazin-2-amine]	4.6	0.39	< 0.17			
COc1cn2ncc(-c3nc(N[C@@H]4CCCNC4)ncc3F)c2nc1C1CC1 [Compound 14a, (R)-4-(5-cyclopropyl-6-methoxypyrazolo[1,5-a]pyrimidin-3-yl)-5-fluoro-N-(piperidin-3-yl)pyrimidin-2-amine]	1.6	< 0.17	< 0.17			
